Measured values: article PMC5564600 (Oncotarget, 2017)

Legend:
Test in all cases: biochemical
Format in all cases: binding
panel of 442 kinases [1] = target: T1, panel of 442 kinases (Homo sapiens, UniProt P15056); details: BRAF; for remaining activity at 1 µM: read-out: % of control at 1 µM
T1 construct: purchased Ambit Biosciences (scanMAXX KINOMEscan)

panel of 442 kinases [2] = target: T2, panel of 442 kinases (Homo sapiens, UniProt P16234); details: kinase PDGFRA; for remaining activity at 1 µM: read-out: % of control at 1 µM
T2 construct: purchased Ambit Biosciences (scanMAXX KINOMEscan)
T2 sequence (P16234 24-1089): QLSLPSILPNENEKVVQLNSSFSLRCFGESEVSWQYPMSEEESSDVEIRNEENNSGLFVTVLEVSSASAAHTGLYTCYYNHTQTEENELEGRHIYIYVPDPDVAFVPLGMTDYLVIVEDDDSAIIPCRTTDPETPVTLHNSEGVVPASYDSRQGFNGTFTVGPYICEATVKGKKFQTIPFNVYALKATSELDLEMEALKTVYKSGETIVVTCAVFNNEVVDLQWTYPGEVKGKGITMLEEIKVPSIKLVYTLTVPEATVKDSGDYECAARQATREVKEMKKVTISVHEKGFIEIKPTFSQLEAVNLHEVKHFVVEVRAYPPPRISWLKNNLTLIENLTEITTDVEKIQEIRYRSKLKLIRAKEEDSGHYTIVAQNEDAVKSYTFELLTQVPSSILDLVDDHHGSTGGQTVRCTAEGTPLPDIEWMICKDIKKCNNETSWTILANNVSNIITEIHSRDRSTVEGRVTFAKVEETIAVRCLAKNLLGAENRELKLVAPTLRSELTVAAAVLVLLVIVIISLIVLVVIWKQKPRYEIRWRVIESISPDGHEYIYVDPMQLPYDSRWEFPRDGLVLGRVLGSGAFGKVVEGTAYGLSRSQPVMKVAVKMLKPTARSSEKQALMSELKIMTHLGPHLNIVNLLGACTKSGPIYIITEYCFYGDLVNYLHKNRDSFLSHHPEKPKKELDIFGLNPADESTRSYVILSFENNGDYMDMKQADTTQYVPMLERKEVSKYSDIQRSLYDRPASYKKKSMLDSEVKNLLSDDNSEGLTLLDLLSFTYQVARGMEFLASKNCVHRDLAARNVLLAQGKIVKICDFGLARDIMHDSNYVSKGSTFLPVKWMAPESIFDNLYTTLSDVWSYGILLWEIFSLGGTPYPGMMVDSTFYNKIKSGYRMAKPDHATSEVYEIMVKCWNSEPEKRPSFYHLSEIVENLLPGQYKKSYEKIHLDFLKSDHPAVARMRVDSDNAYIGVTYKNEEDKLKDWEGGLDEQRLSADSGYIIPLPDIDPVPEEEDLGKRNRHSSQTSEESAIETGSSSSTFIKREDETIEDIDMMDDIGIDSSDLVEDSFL

panel of 442 kinases [3] = target: T3, panel of 442 kinases (Homo sapiens, UniProt P42679); details: CTK; for remaining activity at 1 µM: read-out: % of control at 1 µM
T3 construct: purchased Ambit Biosciences (scanMAXX KINOMEscan)
T3 sequence (P42679 1-507): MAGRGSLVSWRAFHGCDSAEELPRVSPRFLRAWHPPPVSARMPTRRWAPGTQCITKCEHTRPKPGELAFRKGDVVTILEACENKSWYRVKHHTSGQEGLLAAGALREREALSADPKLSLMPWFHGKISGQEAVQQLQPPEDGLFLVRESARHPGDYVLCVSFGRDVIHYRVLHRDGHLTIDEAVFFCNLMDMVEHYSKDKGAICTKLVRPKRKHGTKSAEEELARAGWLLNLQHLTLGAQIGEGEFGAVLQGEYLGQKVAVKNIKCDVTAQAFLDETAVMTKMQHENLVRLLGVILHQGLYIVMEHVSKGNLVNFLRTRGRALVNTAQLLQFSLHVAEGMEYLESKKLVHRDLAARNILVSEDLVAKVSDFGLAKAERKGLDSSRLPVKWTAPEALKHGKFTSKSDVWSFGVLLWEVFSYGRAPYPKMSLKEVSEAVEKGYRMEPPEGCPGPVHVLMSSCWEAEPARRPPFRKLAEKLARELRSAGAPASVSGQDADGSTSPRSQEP

panel of 442 kinases [4] = target: T4, panel of 442 kinases (Homo sapiens, UniProt Q02156); details: kinase PRKCE; for remaining activity at 1 µM: read-out: PRKCE (% of control at 1 µM)
T4 construct: purchased Ambit Biosciences (scanMAXX KINOMEscan)
T4 sequence (Q02156 1-737): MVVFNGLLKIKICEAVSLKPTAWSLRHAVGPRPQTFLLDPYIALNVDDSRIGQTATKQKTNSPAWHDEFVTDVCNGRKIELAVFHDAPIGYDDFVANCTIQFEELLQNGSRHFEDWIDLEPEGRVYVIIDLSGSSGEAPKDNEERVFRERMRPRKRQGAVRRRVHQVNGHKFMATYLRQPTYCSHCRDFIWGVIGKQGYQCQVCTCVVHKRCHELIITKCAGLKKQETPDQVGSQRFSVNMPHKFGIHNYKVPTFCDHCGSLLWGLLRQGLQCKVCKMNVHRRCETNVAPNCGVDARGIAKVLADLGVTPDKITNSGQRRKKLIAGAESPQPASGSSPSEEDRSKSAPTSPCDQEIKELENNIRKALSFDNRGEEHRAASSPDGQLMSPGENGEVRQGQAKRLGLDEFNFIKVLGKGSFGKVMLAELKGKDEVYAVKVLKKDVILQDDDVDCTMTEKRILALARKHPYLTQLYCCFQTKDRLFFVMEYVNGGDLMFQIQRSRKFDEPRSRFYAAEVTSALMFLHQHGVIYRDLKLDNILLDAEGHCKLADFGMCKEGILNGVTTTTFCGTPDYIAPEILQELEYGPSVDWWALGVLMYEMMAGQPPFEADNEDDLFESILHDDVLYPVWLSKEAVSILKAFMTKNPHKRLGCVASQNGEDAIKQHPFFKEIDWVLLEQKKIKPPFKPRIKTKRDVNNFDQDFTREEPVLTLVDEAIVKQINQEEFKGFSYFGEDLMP

panel of 442 kinases [5] = target: T5, panel of 442 kinases (Homo sapiens, UniProt Q9UQ88); details: CDC2L2; for remaining activity at 1 µM: read-out: % of control at 1 µM
T5 construct: purchased Ambit Biosciences (scanMAXX KINOMEscan)
T5 sequence (Q9UQ88 1-783): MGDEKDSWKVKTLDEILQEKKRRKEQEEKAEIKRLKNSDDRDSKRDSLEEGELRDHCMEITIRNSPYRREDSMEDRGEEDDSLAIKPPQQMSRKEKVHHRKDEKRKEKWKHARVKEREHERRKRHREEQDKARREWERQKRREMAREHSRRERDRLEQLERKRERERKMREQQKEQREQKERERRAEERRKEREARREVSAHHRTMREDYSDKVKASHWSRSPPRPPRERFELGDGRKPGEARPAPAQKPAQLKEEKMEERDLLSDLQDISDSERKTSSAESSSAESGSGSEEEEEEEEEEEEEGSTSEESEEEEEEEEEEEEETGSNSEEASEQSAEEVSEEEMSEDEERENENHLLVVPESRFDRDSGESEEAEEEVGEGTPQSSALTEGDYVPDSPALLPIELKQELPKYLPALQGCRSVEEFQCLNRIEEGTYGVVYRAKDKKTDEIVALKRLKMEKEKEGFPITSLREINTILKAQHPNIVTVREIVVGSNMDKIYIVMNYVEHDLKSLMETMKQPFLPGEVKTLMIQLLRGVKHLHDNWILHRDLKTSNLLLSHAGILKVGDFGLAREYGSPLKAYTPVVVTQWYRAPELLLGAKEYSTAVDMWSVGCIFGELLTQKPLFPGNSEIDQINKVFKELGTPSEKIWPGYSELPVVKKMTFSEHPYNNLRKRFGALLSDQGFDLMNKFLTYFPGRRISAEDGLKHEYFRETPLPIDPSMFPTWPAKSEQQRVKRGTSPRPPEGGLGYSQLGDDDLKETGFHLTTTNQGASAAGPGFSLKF

[6] = 10 µM, read-out: % of control at 10 µM

T1 sequence (P15056 whole entry): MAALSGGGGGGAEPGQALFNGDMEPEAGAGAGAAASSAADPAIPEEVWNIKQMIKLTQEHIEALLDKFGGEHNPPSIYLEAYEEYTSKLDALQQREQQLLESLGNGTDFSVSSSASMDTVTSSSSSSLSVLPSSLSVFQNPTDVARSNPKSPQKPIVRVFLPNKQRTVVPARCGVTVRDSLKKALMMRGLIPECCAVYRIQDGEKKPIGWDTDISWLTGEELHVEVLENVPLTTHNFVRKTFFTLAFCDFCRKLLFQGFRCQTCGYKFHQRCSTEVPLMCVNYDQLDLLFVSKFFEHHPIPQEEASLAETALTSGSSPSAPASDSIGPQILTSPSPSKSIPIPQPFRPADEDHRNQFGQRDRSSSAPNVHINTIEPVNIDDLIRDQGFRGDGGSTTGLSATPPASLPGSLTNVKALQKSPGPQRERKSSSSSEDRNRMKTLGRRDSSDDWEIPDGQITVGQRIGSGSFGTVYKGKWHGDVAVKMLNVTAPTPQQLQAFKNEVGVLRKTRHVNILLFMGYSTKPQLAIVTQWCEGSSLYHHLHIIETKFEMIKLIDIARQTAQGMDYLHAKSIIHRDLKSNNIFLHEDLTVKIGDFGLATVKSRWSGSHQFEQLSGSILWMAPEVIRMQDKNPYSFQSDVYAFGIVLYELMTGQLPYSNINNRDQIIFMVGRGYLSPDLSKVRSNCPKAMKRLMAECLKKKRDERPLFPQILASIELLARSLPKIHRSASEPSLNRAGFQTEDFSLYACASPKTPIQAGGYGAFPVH

Structure (SMILES)	remaining activity at 1 µM (panel of 442 kinases [1])	remaining activity at 10 µM (panel of 442 kinases [1]; [6])	remaining activity at 1 µM (panel of 442 kinases [2])	remaining activity at 10 µM (panel of 442 kinases [2]; [6])	remaining activity at 1 µM (panel of 442 kinases [3])	remaining activity at 10 µM (panel of 442 kinases [3]; [6])	remaining activity at 1 µM (panel of 442 kinases [4])	remaining activity at 10 µM (panel of 442 kinases [4]; 10 µM, read-out: PRKCE (% of control at 10 µM))	remaining activity at 1 µM (panel of 442 kinases [5])	remaining activity at 10 µM (panel of 442 kinases [5]; [6])
Nc1cc(C(F)(F)F)c(-c2cc(N3CCOCC3)nc(N3CCOCC3)n2)cn1 [Buparlisib]	59%	40%	100%	100%	100%	100%	97%	100%	100%	99%
Cn1c(=O)n(-c2ccc(C(C)(C)C#N)cc2)c2c3cc(-c4cnc5ccccc5c4)ccc3ncc21 [Dactolisib, 2-methyl-2-[4-(3-methyl-2-oxo-8-quinolin-3-yl-2,3-dihydroimidazo[4,5-c]quinolin-1-yl)-phenyl] propionitrile]	88%		100%		92%		78%		89%	
COc1ncc(-c2ccc3nccc(-c4ccnnc4)c3c2)cc1NS(=O)(=O)c1ccc(F)cc1F [Omipalisib]			100%		100%		100%		100%	
FC(F)c1nc2ccccc2n1-c1nc(N2CCOCC2)nc(N2CCOCC2)n1 [ZSTK474, 2-(difluoromethyl)-1-[4,6-di(4-morpholinyl)-1,3,5-triazin-2-yl]-1H-benzimidazole]	61%		85%		100%		100%		100%	
